Among the data in patent publication US10829492B2, “Amino pyrazolopyrimidine compound used as neurotrophic factor tyrosine kinase receptor inhibitor” (CHIA TAI TIANQING PHARMACEUTICAL GROUP CO., LTD., priority 2016, dated 2020) are IC50 values, retold here.

As a reminder, the IC50 is the concentration needed to halve the response being measured. High values mean a need for much substance, low ones inhibition by little substance.

Chain of TrkA kinase (P04629 33-796): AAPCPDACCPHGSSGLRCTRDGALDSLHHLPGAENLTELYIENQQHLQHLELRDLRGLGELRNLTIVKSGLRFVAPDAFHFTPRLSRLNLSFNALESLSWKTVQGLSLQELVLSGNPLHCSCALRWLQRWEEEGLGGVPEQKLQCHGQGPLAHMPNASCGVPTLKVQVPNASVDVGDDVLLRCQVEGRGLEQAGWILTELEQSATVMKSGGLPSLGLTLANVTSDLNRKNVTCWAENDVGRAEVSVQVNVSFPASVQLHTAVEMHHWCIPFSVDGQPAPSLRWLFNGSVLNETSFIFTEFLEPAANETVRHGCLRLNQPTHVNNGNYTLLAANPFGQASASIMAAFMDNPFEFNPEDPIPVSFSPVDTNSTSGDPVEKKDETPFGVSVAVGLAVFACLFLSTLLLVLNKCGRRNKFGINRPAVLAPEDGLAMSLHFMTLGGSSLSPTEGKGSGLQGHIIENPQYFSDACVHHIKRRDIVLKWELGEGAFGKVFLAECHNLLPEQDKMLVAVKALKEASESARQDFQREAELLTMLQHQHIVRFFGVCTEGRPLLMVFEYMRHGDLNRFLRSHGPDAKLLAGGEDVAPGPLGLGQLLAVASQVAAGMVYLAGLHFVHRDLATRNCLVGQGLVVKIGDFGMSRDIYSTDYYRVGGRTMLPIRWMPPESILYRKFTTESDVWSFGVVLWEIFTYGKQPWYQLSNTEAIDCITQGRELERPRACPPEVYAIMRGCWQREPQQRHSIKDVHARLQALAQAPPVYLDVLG

In this assay the target is TrkA kinase (Homo sapiens (Human), UniProt P04629). The assay is described as follows: HTRF assay for inhibitory activity (IC50) against NTRK kinase, TrkA. The format is biochemical. Particulars: Table 1, ATP 40 μM, kinase 0.5 nM. Here is the method:
1. Assay for Inhibitory Activity (IC50) Against NTRK Kinase
A testing platform for TrkA, TrkB and TrkC kinase activity was established based on Homogeneous Time-Resolved Fluorescence (HTRF) assay, and the activities of the compounds were tested using the platform. The compounds were subjected to three-fold gradient dilution with 100% DMSO with a starting concentration of 1 mM (11 concentrations in total). 4 μL of diluted sample for each concentration was added to 96 μL of reaction buffer (50 mM HEPES, pH7.4, 5 mM MgCl2, 1 mM NaVO3, 0.001% Tween-20, 0.01% BSA and 1 mM DTT) and mixed homogeneously to be used as a 4* compound. The reaction buffer was used to formulate 2* TrkA, TrkB and TrkC kinases (purchased from Carna Biosciences 08-186, 08-187, 08-197, and the final concentrations thereof were 0.5 nM, 0.1 nM, and 1 nM, respectively) and 4* substrate mixture (ATP+TK peptide) (wherein the final concentrations of ATP were 40 μM, 50 μM, and 20 μM, respectively; TK peptide, HTRF® KinEASE™-TK, was purchased from Cisbio, and the final concentration thereof was 100 nM) for use. 2.5 μL of the 4* compound was added to a 384-well plate (OptiPlate-384, purchased from PerkinElmer), and then 5 μL of the 2* TrkA, TrkB and TrkC kinases were added, and mixed homogeneously by centrifugation. Then 2.5 μL of the 4* substrate mixture was added to initiate the reaction (the total reaction volume is 10 μL). The 384-well plate was placed in an incubator and incubated for 60 min at 23° C. Then the reaction was terminated by adding 5 μL of Eu3+ cryptate-labeled anti-phosphotyrosine antibody (HTRF® KinEASE™-TK, purchased from Cisbio), and 5 μL of Streptavidin-XL-665 (HTRF® KinEASE™-TK, purchased from Cisbio). After incubated for 1 hr in the incubator, the fluorescence values were read on Envision (purchased from PerkinElmer). The excitation wavelength was 320 nm, and the emission wavelengths for detection were 665 nm and 620 nm. The enzymatic activity was represented by a ratio of the two readout at the two emission wavelengths. The enzymatic activity for each compound was tested at 11 concentrations, and IC50 values of the compounds were obtained by calculating the data using GraFit6.0 software (Erithacus Software).
(Time-resolved FRET reads energy transfer from a long-lived donor to a nearby acceptor.)
As for `NC(=O)c1c(N)nn2ccc(N3C[C@@H](O)CC3c3cc(F)ccc3F)nc12` (stereo in doubt) [Example 47, 2-amino-5-((2R,4S)-2-(2,5-difluorophenyl)-4-hydroxypyrrolidin-1-yl)pyrazolo[1,5-a]pyrimidine-3-carboxamide], the IC50 is < 1000 nM. Turning to `CCOC(=O)c1c(N)nn2ccc(N3CCC[C@@H]3c3cc(F)ccc3F)nc12` [Example 1, ethyl (R)-2-amino-5-(2-(2,5-difluorophenyl)pyrrolidin-1-yl)pyrazolo[1,5-a]pyrimidine-3-carboxylate], the concentration for half-maximal inhibition (IC50) is < 1 nM.

Regarding `Nc1nn2ccc(N3CCC[C@@H]3c3cc(F)ccc3F)nc2c1C(=O)O` [Example 2, (R)-2-amino-5-(2-(2,5-difluorophenyl)pyrrolidin-1-yl)pyrazolo[1,5-a]pyrimidine-3-carboxylic Acid], the IC50 was < 100 nM. Regarding `CNC(=O)c1c(N)nn2ccc(N3CCC[C@@H]3c3cc(F)ccc3F)nc12` [Example 3, (R)-2-amino-5-(2-(2,5-difluorophenyl)pyrrolidin-1-yl)-N-methylpyrazolo[1,5-a]pyrimidine-3-carboxamide], the 50% inhibitory concentration (IC50) is < 1 nM. In the case of `CCOC(=O)c1c(N)nn2ccc(N3CCCC3c3cc(F)ccc3F)nc12` (stereo not drawn) [Example 5, ethyl 2-amino-5-(2-(2,5-difluorophenyl)pyrrolidin-1-yl)pyrazolo[1,5-a]pyrimidine-3-carboxylate], the IC50 was < 1 nM. Under `NC(=O)c1c(N)nn2ccc(N3CCCC3c3cc(F)ccc3F)nc12` (stereo not drawn) [Example 6, 2-amino-5-(2-(2,5-difluorophenyl)pyrrolidin-1-yl)pyrazolo[1,5-a]pyrimidine-3-carboxamide] stands < 1 nM; under `CCOC(=O)c1c(NC(=O)NC)nn2ccc(N3CCCC3c3cc(F)ccc3F)nc12` (stereo not drawn) [Example 7, ethyl 5-(2-(2,5-difluorophenyl)pyrrolidin-1-yl)-2-(3-methylureido)pyrazolo[1,5-a]pyrimidine-3-carboxylate], < 100 nM; under `CCOC(=O)c1c(NC(C)=O)nn2ccc(N3CCC[C@@H]3c3cc(F)ccc3F)nc12` [Example 9, ethyl (R)-2-acetylamino-5-(2-(2,5-difluorophenyl)pyrrolidin-1-yl)pyrazolo[1,5-a]pyrimidine-3-carboxylate], < 25 nM.

Regarding `Nc1nn2ccc(N3CCC[C@@H]3c3cc(F)ccc3F)nc2c1C(=O)N1CCC(O)C1` (stereo partly drawn) [Example 10, (2-amino-5-((R)-2-(2,5-difluorophenyl)pyrrolidin-1-yl)pyrazolo[1,5-a]pyrimidin-3-yl) (3-hydroxypyrrolidin-1-yl)methanone], the IC50 is < 25 nM. Under `Nc1nn2ccc(N3CCC[C@@H]3c3cc(F)ccc3F)nc2c1C(=O)NCCO` [Example 13, (R)-2-amino-5-(2-(2,5-difluorophenyl)pyrrolidin-1-yl)-N-(2-hydroxyethyl)pyrazolo[1,5-a]pyrimidine-3-carboxamide] stands < 1 nM; under `CN(C)CCNC(=O)c1c(N)nn2ccc(N3CCC[C@@H]3c3cc(F)ccc3F)nc12` [Example 19, (R)-2-amino-5-(2-(2,5-difluorophenyl)pyrrolidin-1-yl)-N-(2-(dimethylamino)ethyl)pyrazolo[1,5-a]pyrimidine-3-carboxamide], < 1 nM; under `CCOC(=O)c1c(NC)nn2ccc(N3CCC[C@@H]3c3cc(F)ccc3F)nc12` [Example 20, ethyl (R)-5-(2-(2,5-difluorophenyl)pyrrolidin-1-yl)-2-(methylamino)pyrazolo[1,5-a]pyrimidine-3-carboxylate], < 1000 nM. As to `CNc1nn2ccc(N3CCC[C@@H]3c3cc(F)ccc3F)nc2c1C(N)=O` [Example 21, (R)-5-(2-(2,5-difluorophenyl)pyrrolidin-1-yl)-2-(methylamino)pyrazolo[1,5-a]pyrimidine-3-carboxamide], the half-maximal inhibitory concentration (IC50) is < 500 nM. On to `CCNc1nn2ccc(N3CCC[C@@H]3c3cc(F)ccc3F)nc2c1C(=O)OCC` [Example 22, ethyl (R)-5-(2-(2,5-difluorophenyl)pyrrolidin-1-yl)-2-(ethylamino)pyrazolo[1,5-a]pyrimidine-3-carboxylate], for which the IC50 was < 100 nM. For the molecule `CCOC(=O)c1c(NCCN2CCOCC2)nn2ccc(N3CCC[C@@H]3c3cc(F)ccc3F)nc12` [Example 23, ethyl (R)-5-(2-(2,5-difluorophenyl)pyrrolidin-1-yl)-2-((2-morpholinylethyl)amino)pyrazolo[1,5-a]pyrimidine-3-carboxylate], the concentration for half-maximal inhibition (IC50) was < 100 nM. Under `Nc1cc2nc(N3CCCC3c3cc(F)ccc3F)ccn2n1` (stereo not drawn) [Example 24, 5-(2-(2,5-difluorophenyl)pyrrolidin-1-yl)pyrazolo[1,5-a]pyrimidin-2-amine] stands < 500 nM; under `CCOC(=O)c1coc(-c2c(NCc3ccc(OC)cc3)nn3ccc(N4CCCC4c4cc(F)ccc4F)nc23)n1` (stereo not drawn) [Example 26, ethyl 2-(5-(2-(2,5-difluorophenyl)pyrrolidin-1-yl)-2-((4-methoxybenzyl)amino)pyrazolo[1,5-a]pyrimidin-3-yl)oxazole-4-carboxylate], < 100 nM. The result for `Cc1coc(-c2c(N)nn3ccc(N4CCCC4c4cc(F)ccc4F)nc23)n1` (stereo not drawn) [Example 27] reads < 25 nM; that for `Cc1csc(-c2c(N)nn3ccc(N4CCCC4c4cc(F)ccc4F)nc23)n1` (stereo not drawn) [Example 28], < 25 nM; that for `CCOC(=O)c1csc(-c2c(N)nn3ccc(N4CCCC4c4cc(F)ccc4F)nc23)n1` (stereo not drawn) [Example 29, ethyl 2-(2-amino-5-(2-(2,5-difluorophenyl)pyrrolidin-1-yl)pyrazolo[1,5-a]pyrimidin-3-yl)thiazole-4-carboxylate], < 1 nM.

In the case of `Nc1nn2ccc(N3CCCC3c3cc(F)ccc3F)nc2c1-c1nc(C(=O)N2CC[C@H](O)C2)cs1` (stereo partly drawn) [Example 30, (2-(2-amino-5-(2-(2,5-difluorophenyl)pyrrolidin-1-yl)pyrazolo[1,5-a]pyrimidin-3-yl)thiazol-4-yl)((S)-3-hydroxypyrrolidin-1-yl)methanone], the half-inhibitory concentration (IC50) was < 1 nM.

Regarding `NC(=S)c1c(N)nn2ccc(N3CCCC3c3cc(F)ccc3F)nc12` (stereo not drawn) [Example 31, 2-amino-5-(2-(2,5-difluorophenyl)pyrrolidin-1-yl)pyrazolo[1,5-a]pyrimidine-3-thioamide], the IC50 was < 1 nM.

Take `Nc1nn2ccc(N3CCCC3c3cc(F)ccc3F)nc2c1-c1cccc(N2CCOCC2)c1` (stereo not drawn) [Example 33, 5-(2-(2,5-difluorophenyl)pyrrolidin-1-yl)-3-(3-morpholinylphenyl)pyrazolo[1,5-a]pyrimidin-2-amine]: the concentration for half-maximal inhibition (IC50) was < 25 nM.

Take `Cn1cc(-c2c(N)nn3ccc(N4CCC[C@@H]4c4cc(F)ccc4F)nc23)cn1` [Example 34]: the half-maximal inhibitory concentration (IC50) was < 1 nM. For the molecule `CCOC(=O)c1c(N)nn2ccc(N3C[C@@H](F)C[C@@H]3c3cc(F)ccc3F)nc12` [Example 35, ethyl 2-amino-5-((2R,4S)-2-(2,5-difluorophenyl)-4-fluoropyrrolidin-1-yl)pyrazolo[1,5-a]pyrimidine-3-carboxylate], the IC50 is < 1 nM. For the molecule `CCOC(=O)c1c(N)nn2ccc(N3C[C@@H](F)C[C@H]3c3cc(F)ccc3F)nc12` [Example 37, ethyl 2-amino-5-((2S,4S)-2-(2,5-difluorophenyl)-4-fluoropyrrolidin-1-yl)pyrazolo[1,5-a]pyrimidine-3-carboxylate], the IC50 is < 500 nM. On to `CCOC(=O)c1c(N)nn2ccc(N3CC(F)(F)CC3c3cc(F)ccc3F)nc12` (stereo not drawn) [Example 38, ethyl 2-amino-5-(2-(2,5-difluorophenyl)-4,4-difluoropyrrolidin-1-yl)pyrazolo[1,5-a]pyrimidine-3-carboxylate], for which the half-inhibitory concentration (IC50) is < 25 nM.

On to `CCOC(=O)c1c(N)nn2ccc(N3CC(=O)CC3c3cc(F)ccc3F)nc12` (stereo not drawn) [Example 43, ethyl 2-amino-5-(2-(2,5-difluorophenyl)-4-oxopyrrolidin-1-yl)pyrazolo[1,5-a]pyrimidine-3-carboxylate], for which the half-maximal inhibitory concentration (IC50) is < 25 nM.

Consider `N#Cc1c(N)nn2ccc(N3C[C@@H](O)C[C@@H]3c3cc(F)ccc3F)nc12` [Example 44, 2-amino-5-((2R,4S)-2-(2,5-difluorophenyl)-4-hydroxypyrrolidin-1-yl)pyrazolo[1,5-a]pyrimidine-3-carbonitrile], for which the half-maximal inhibitory concentration (IC50) is < 25 nM. Under `Nc1nn2ccc(N3C[C@@H](F)C[C@@H]3c3cc(F)ccc3F)nc2c1C(=O)NCCO` [Example 49, 2-amino-5-((2R,4S)-2-(2,5-difluorophenyl)-4-fluoropyrrolidin-1-yl)-N-(2-hydroxyethyl)pyrazolo[1,5-a]pyrimidine-3-carboxamide] stands < 1 nM.
